Results taken from patent US8034826B2, “Cycloalkane[B]azaindole antagonists of prostaglandin D2 receptors” (Panmira Pharmaceuticals, LLC, priority 2008, dated 2011).

What was measured:
[1] = Plasma concentrations of the compound in mice of the allergic rhinitis model; format: in vivo; settings: female, BALB/c, mouse, 10 mg/kg as the sodium salt, oral
Method: The compounds ability to inhibit allergen-induced sneezing and nasal rubbing is assessed using a mouse model of allergic rhinitis. Methods were adapted from those detailed in Nakaya, M., et al. 2006, Laboratory Investigation, 86:917-926. Female BALB/c mice (20-25 g) are immunized by an intraperitoneal injection (i.p.) of 10 μg ovalbumin (OVA) complexed with alum in a volume 0.2 mL on days 0 and 7. Fourteen days later (day 21) mice are challenged intranasally with 20 μl of a 10 mg/mL solution of OVA. The challenge period occurs daily from days 21 to day 23. Mice (5-7/group) are randomly assigned to receive either compound or vehicle and are treated by oral gavage 1 hour prior to OVA challenge. The number of sneezes and nasal rubs are counted by an independent blinded observe during a period of 8 minutes immediately following OVA challenge on days 21, 23 and […]. A significant increase in allergen-induced sneezing and nasal rubbing occurs over the 3-day challenge period. Inhibition of this effect by select compounds is determined statistically using Graphpad prism.

[2] = target: T1, human DP2 receptor (Homo sapiens, UniProt Q9Y5Y4); assay: DP2/CRTH2 radioligand binding assay using [3H]PGD2; settings: membranes of HEK293 cells expressing recombinant human DP2, 1 nM [3H]PGD2; read-out: hDP2
T1 construct: expressed in transfected cells
T1 sequence (Q9Y5Y4 1-395): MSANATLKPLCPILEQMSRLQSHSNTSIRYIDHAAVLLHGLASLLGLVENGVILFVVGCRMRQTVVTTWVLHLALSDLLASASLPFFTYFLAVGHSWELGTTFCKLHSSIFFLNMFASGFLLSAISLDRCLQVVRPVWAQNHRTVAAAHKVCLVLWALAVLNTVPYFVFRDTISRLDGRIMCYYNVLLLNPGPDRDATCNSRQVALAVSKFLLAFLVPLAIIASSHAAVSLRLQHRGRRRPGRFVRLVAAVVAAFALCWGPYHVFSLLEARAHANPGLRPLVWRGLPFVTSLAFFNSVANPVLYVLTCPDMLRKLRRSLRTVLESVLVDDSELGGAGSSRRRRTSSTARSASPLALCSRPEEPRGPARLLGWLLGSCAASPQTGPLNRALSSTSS
Method: The ability of a compound to bind to the human DP2 receptor is assessed via a radioligand binding assay using [^3H]PGD2. HEK293 cells stably expressing recombinant human DP2 are resuspended in 10 mM Hepes, 7.4 containing 1 mM DTT, lysed and centrifuged at 75,000×g to pellet the membranes. The membranes are resuspended in 10 mM Hepes, 7.4 containing 1 mM DTT and 10% glycerol to approximately 5 mg protein/ml. Membranes (2-10 μg protein/well) are incubated in 96-well plates with 1 nM [^3H]PGD2 and test compound in Assay Buffer (50 mM Hepes, 10 mM MnCl2, 1 mM EDTA, plus or minus 0.2% human serum albumin, pH 7.4) for 60 minutes at room temperature. The reactions are terminated by rapid filtration through Whatman GF/C glass fibre filter plates. The filter plates were pre-soaked in 0.33% polyethylenimine for 30 minutes at room temperature then washed in Wash Buffer (50 mM Hepes, 0.5 M NaCl pH 7.4) prior to harvesting. After harvesting, the filter plates are washed 3 times with 1 ml cold Wash Buffer then dried. Scintillant is then added to the plates and the radioactivity retained on the filters is determined on a Packard TopCount (Perkin Elmer). Specific binding is determined as total radioactive binding minus non-specific binding in the presence of 10 μM PGD2. IC50s were determined using GraphPad prism analysis of drug titration curves.

| Cmax [1] | concentration at 8 h ([1]; at 8 hours, read-out: Plasma Cmin at 8 hours) | IC50 [2] | Compound |
| --- | --- | --- | --- |
| 770 nM | 120 nM |  | CN(C1CCc2c(c3ncccc3n2CC(=O)O)C1)S(=O)(=O)c1ccc(F)cc1 (racemic) [Compound 2, {8-[(4-fluoro-benzenesulfonyl)-methyl-amino]-6,7,8,9-tetrahydro-pyrido[3,2-b]indol-5-yl}-acetic acid] |
|  |  | > 100 nM | O=C(O)CCn1c2c(c3ccccc31)C[C@H](NS(=O)(=O)c1ccc(F)cc1)CC2 [Ramatroban] |
